According to ChEMBL document CHEMBL5614367, “Hydroxamic acid hybrids: Histone deacetylase inhibitors with anticancer therapeutic potency” (Eur J Med Chem, 2023):
Values belong to the compound of their own block, whether it stands above or below them.

How the values were obtained:
SW-620 [1] = assay: Antiproliferative activity against human SW620 cells incubated for 48 hrs by colorimetric method; type: functional, cell-based; conditions: SW-620, 48 h
143B = assay: Antiproliferative activity against human 143B cells; type: functional
NCI-H23 = assay: Antiproliferative activity against human NCI-H23 cells incubated for 48 hrs by colorimetric method; type: functional, cell-based; conditions: NCI-H23, 48 h
PC-3 [2] = assay: Antiproliferative activity against human PC-3 cells incubated for 48 hrs by colorimetric method; type: functional, cell-based; conditions: PC-3, 48 h
HOS = assay: Antiproliferative activity against human HOS cells; type: functional
SAOS-2 = assay: Antiproliferative activity against human SAOS-2 cells; type: functional
MOLT-4 = assay: Antiproliferative activity against human MOLT-4 cells assessed as inhibition of cell growth incubated for 72 hrs by MTT assay; type: functional, cell-based; conditions: MOLT-4, 72 h
MCF7 [3] = assay: Antiproliferative activity against human MCF7 cells assessed as inhibition of cell growth incubated for 72 hrs by MTT assay; type: functional, cell-based; conditions: MCF7, 72 h
MDA-MB-231 [4] = assay: Antiproliferative activity against human MDA-MB-231 cells assessed as inhibition of cell growth incubated for 72 hrs by MTT assay; type: functional, cell-based; conditions: MDA-MB-231, 72 h
SK-N-BE(2) = assay: Antiproliferative activity against human SK-N-BE(2) cells assessed as inhibition of cell growth incubated for 72 hrs by MTT assay; type: functional, cell-based; conditions: SKNBE2, 72 h
PC-3 [5] = assay: Antiproliferative activity against human PC-3 cells assessed as inhibition of cell growth incubated for 72 hrs by MTT assay; type: functional, cell-based; conditions: PC-3, 72 h
HEL [6] = assay: Antiproliferative activity against human HEL cells assessed as inhibition of cell growth incubated for 72 hrs by MTT assay; type: functional, cell-based
KG-1 = assay: Antiproliferative activity against human KG-1 cells assessed as inhibition of cell growth incubated for 72 hrs by MTT assay; type: functional, cell-based; conditions: KG-1, 72 h
HT-29 = assay: Antiproliferative activity against human HT-29 cells; type: functional, cell-based
MM96L = assay: Antiproliferative activity against human MM96L cells; type: functional, cell-based
[7] = Cytotoxicity against human NFF cells; type: toxicity, cell-based
A549 = assay: Antiproliferative activity against human A549 cells
HeLa = assay: Antiproliferative activity against human HeLa cells; type: functional, cell-based
Histone deacetylase 2 = Histone deacetylase 2 (Homo sapiens, UniProt Q92769); assay: Inhibition of HDAC2 (unknown origin)
MDA-MB-231 [8] = assay: Antiproliferative activity against human MDA-MB-231 cells
WSUDLCL2 [9] = assay: Antiproliferative activity against human WSUDLCL2 cells measured after 72 hrs by CCK-8 assay; type: functional, cell-based; conditions: WSUDLCL2, 72 h
WSUDLCL2 [10] = assay: Antitumor activity against human WSUDLCL2 cells xenografted in mouse assessed as tumor growth inhibition at 50 mg/kg, ip administered for 21 days; type: functional; conditions: WSUDLCL2, 504 h, time 21 day, read-out: TGI
MV4-11 = assay: Antiproliferative activity against human MV4-11 cells measured after 72 hrs by CCK-8 assay; type: functional, cell-based; conditions: MV4-11, 72 h
SU-DHL-2 = assay: Antiproliferative activity against human SU-DHL-2 cells measured after 72 hrs by CCK-8 assay; type: functional, cell-based; conditions: SU-DHL-2, 72 h
K562 = assay: Antiproliferative activity against human K562 cells measured after 72 hrs by CCK-8 assay; type: functional, cell-based; conditions: K562, 72 h
HEL [11] = assay: Antiproliferative activity against human HEL cells measured after 72 hrs by CCK-8 assay; type: functional, cell-based
PC-3 [12] = assay: Antiproliferative activity against human PC-3 cells; type: functional, cell-based
[13] = target: T1, Protein deacetylase HDAC6 (Homo sapiens, UniProt Q9UBN7); assay: Inhibition of HDAC6 (unknown origin)
T1 sequence (Q9UBN7 whole entry): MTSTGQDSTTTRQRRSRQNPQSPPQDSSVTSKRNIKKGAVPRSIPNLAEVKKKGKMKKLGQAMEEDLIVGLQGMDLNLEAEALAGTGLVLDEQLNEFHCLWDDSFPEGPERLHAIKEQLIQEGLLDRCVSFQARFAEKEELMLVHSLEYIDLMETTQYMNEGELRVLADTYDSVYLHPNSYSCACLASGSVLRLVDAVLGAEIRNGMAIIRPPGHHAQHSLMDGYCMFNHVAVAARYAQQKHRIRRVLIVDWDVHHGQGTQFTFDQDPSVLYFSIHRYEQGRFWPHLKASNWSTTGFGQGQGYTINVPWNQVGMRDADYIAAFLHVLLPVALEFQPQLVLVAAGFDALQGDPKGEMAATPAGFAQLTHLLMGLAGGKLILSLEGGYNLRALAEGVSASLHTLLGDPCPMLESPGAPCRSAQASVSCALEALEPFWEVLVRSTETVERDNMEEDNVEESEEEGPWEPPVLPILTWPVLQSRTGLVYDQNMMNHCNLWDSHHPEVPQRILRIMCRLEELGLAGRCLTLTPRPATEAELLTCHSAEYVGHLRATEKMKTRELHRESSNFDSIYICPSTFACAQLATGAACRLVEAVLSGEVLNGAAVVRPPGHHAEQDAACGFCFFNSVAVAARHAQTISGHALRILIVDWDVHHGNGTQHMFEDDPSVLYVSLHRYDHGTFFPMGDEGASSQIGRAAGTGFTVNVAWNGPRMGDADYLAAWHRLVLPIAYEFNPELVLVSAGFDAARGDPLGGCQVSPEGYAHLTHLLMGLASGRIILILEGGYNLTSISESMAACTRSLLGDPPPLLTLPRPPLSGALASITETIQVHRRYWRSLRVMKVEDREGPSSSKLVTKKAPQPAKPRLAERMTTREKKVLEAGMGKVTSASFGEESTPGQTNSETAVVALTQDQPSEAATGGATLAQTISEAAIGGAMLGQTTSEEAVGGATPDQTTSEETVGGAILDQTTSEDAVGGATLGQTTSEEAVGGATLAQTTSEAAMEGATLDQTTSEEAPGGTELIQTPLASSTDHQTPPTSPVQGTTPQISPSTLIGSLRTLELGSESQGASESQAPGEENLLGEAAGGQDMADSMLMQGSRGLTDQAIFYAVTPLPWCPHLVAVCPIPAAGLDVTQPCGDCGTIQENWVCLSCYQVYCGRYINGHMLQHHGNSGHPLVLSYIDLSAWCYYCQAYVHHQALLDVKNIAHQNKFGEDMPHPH

SW-620 [14] = assay: Antiproliferative activity against human SW620 cells; type: functional, cell-based
MCF7 [15] = assay: cells; conditions: Homo sapiens
[16] = Antiproliferative activity against human HL-60/Vinc cells; conditions: HL60/vinc
[17] = Cytotoxicity against HEK293 cells; type: toxicity, cell-based; conditions: human
Jurkat = assay: Antiproliferative activity against human Jurkat cells; type: functional, cell-based
HL-60 = assay: Antiproliferative activity against human HL-60 cells; type: functional, cell-based
HL60/ADR = assay: Antiproliferative activity against human HL-60/ADR cells
HCT-116 = assay: cells; conditions: Homo sapiens
Description: Antiproliferative activity against human HCT-116 cells

Histone deacetylase 1 = Histone deacetylase 1 (Homo sapiens, UniProt Q13547); assay: Inhibition of HDAC1 (unknown origin) preincubated for 10 mins followed by substrate addition and measured after 30 mins by fluorescence based microplate reader analysis
Sequence of Histone deacetylase 1 (Q13547 whole entry): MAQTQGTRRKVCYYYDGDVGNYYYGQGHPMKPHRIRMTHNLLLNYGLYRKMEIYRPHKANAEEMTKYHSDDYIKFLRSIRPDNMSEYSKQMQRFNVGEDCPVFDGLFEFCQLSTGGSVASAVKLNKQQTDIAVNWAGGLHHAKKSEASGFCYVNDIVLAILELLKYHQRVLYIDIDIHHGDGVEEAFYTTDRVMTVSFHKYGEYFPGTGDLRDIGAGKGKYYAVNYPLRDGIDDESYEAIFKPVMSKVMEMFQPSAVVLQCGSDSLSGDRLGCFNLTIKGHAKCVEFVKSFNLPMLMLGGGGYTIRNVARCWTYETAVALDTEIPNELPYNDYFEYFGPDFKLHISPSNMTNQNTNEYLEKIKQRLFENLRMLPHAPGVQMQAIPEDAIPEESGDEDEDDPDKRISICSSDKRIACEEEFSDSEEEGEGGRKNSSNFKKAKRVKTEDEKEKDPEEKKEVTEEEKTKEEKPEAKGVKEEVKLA

Sequence of Histone deacetylase 2 (Q92769 whole entry): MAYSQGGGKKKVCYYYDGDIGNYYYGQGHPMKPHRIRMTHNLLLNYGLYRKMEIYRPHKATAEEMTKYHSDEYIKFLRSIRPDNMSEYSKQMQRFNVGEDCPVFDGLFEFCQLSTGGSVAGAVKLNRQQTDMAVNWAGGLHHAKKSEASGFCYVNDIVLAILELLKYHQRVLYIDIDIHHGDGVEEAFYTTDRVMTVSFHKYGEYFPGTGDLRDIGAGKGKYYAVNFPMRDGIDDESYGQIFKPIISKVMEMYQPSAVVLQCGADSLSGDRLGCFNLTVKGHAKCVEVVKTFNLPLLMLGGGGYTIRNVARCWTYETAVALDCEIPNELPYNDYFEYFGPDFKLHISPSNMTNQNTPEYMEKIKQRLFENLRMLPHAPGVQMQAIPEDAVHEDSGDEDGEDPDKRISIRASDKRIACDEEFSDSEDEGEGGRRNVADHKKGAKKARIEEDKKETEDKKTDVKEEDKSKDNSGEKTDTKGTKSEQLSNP

Compound: O=C(/C=C/c1cccc(S(=O)(=O)Nc2ccccc2)c1)NO [BELINOSTAT]
IC50 (SW-620 [1]): 2530 nM
GI50 (143B): 3300 nM
IC50 (NCI-H23): 2530 nM
IC50 (PC-3 [2]): 2530 nM
GI50 (HOS): 3300 nM
GI50 (SAOS-2): 3300 nM

Compound: Nc1nc2ccc(OC(F)(F)F)cc2s1 [RILUZOLE]
IC50 (MOLT-4): > 10000 nM
IC50 (MCF7 [3]): > 10000 nM
IC50 (MDA-MB-231 [4]): > 10000 nM
IC50 (SK-N-BE(2)): > 10000 nM
IC50 (PC-3 [5]): > 10000 nM
IC50 (HEL [6]): > 10000 nM
IC50 (KG-1): > 10000 nM

Compound: O=C(/C=C/c1ccc2nn(Cc3ccc(Cl)cc3)cc2c1)NO
IC50 (PC-3 [12]): 196 nM
IC50 [13]: 231 nM
IC50 (SW-620 [14]): 196 nM
IC50 (MDA-MB-231 [8]): 196 nM

The next lines start with results.

IC50 (HT-29): 50 nM
IC50 (A549): 50 nM
IC50 (HeLa): 50 nM
IC50 (Histone deacetylase 2): 2 nM
IC50 (MDA-MB-231 [8]): 50 nM
Compound: O=C(NO)c1ccc(NC(=O)C2(c3ccc(-c4cn[nH]c4)cc3)CCCCC2)cc1
IC50 (MM96L): 50 nM
IC50 [7]: 50 nM

IC50 (MV4-11): 790 nM
IC50 (SU-DHL-2): 790 nM
IC50 (K562): 790 nM
Compound: C=C[C@@]1(C)CC[C@H](C(=C)CN2CCN(C(=O)CCCCCCC(=O)NO)CC2)C[C@@H]1C(=C)Cn1cccn1
IC50 (WSUDLCL2 [9]): 790 nM
inhibition in vivo at 50 mg/kg (WSUDLCL2 [10]): 31.5%
IC50 (HEL [11]): 790 nM

IC50 (MCF7 [15]): 2320 nM
IC50 (Jurkat): 2320 nM
IC50 (HL-60): 2320 nM
IC50 (HL60/ADR): 2320 nM
IC50 (HCT-116): 2320 nM
Compound: CN(C)c1nc2c(Br)c(Br)c(Br)c(Br)c2n1CCCCCCCC(=O)NO
IC50 [16]: 2320 nM
IC50 [17]: 2320 nM

IC50 (MV4-11): 1000 nM
IC50 (SU-DHL-2): 1000 nM
IC50 (K562): 1000 nM
IC50 (Histone deacetylase 1): 8 nM
Compound: C=C[C@]1(C)CC[C@@H](C(=C)Cn2cccn2)C[C@H]1C(=C)CN1CCN(C(=O)CCCCCCC(=O)NO)CC1
IC50 (WSUDLCL2 [9]): 1000 nM
IC50 (HEL [11]): 1000 nM
